Laboratory results from patent US4214091A, “Antibiotic No. 2-200 and process for producing thereof” (Chugai Seiyaku Kabushiki Kaisha, priority 1977, dated 1980).
Values after ≈ are worked out from the molar mass of the structure shown.

How the values were obtained:
Assay in all cases: MIC, GAM agar, anaerobic
Type in all cases: cell-based
Bacteroides fragilis V-6 = conditions: V6, GAM agar, anaerobic, 37° C., 40 hours, inoculum 10^6/ML, read-out: Minimum inhibitory concentration (MIC)
Experimental: (§1) Minimum inhibitory concentration (MIC) for gram
(§2) Note: incubated at 37° C. for 40 hours on GAM agar medium (product
(§3) of Nippon Seiyaku) using anaerobic incubator. Inoculated with 10^6

Bacteroides fragilis V-7 = conditions: V7, GAM agar, anaerobic, 37° C., 40 hours, inoculum 10^6/ML, read-out: Minimum inhibitory concentration (MIC)
Experimental: as §1, §2, §3

Bacteroides fragilis V-8 = conditions: V8, GAM agar, anaerobic, 37° C., 40 hours, inoculum 10^6/ML, read-out: Minimum inhibitory concentration (MIC)
Experimental: as §1, §2, §3

[1] = test system: Fusobacterium glutinosum 1006; conditions: 37° C., 40 hours, inoculum 10^6/ML, read-out: Minimum inhibitory concentration (MIC)
Experimental: as §1, §2, §3

- MIC (Bacteroides fragilis V-6): 100 µg/mL (≈ 227 µM)
- MIC (Bacteroides fragilis V-7): 25 µg/mL (≈ 56.8 µM)
- MIC (Bacteroides fragilis V-8): > 100 µg/mL
- MIC [1]: 6.25 µg/mL (≈ 14.2 µM)
Compound: O=C(Cn1cnnn1)N[C@@H]1C(=O)N2C(C(=O)O)=C(CSc3nncs3)CS[C@H]12 [Ceftezole, reference compound]
